In publication PMC12865480 (Pharmaceuticals, 2025):
Several values for one entry are separate records, joined by “and”; a condition that tells them apart may be missing. Equal values may be shown once. Read-outs that look alike come from different tables or passages of the source.

How the values were obtained:
σ1 receptor [1] = target: T1, σ1 receptor (Cavia porcellus, UniProt Q60492); assay: biochemical
[2] = target: PCP binding site of the NMDA receptor; assay: PCP binding site assay, radioligand [3H](+)-MK-801, pig brain preparations; conditions: n = 3, values without SEM mean of two experiments
[3] = target: T2, ifenprodil binding site of NMDA receptors with GluN2B subunit (Homo sapiens, UniProt Q05586+Q13224); assay: biochemical
T2 construct: expressed in transfected cells; host or cells: mouse L(tk-) cells, stably transfected, expression induced with dexamethasone; membrane homogenate

σ1 receptor [4] = target: T1, σ1 receptor; conditions: for σ1:σ2 receptor selectivity: σ1 over σ2
σ2 receptor = target: T3, σ2 receptor (Rattus norvegicus, UniProt Q5U3Y7); assay: biochemical; type: binding; conditions: read-out: Ki ± SEM σ2
T3 sequence (Q5U3Y7 1-176): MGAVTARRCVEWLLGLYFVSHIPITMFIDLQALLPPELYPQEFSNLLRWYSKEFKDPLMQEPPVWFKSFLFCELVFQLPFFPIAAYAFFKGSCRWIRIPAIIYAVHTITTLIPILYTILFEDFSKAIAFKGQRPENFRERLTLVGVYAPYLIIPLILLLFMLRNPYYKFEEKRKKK

physchem = conditions: pH 7.4
[5] = after 90 min incubation with mouse liver microsomes and NADPH
µ-opioid receptor = µ-opioid receptor (Cavia porcellus, UniProt A0ACM8Q262); assay: µ-opioid receptor binding study; conditions: read-out: inhibition of the radioligand binding, µ receptor
κ-opioid receptor = κ-opioid receptor (Cavia porcellus, UniProt P41144); assay: κ-opioid receptor binding study; conditions: read-out: inhibition of the radioligand binding, κ receptor
σ1 receptor [6] = target: T1, σ1 receptor; conditions: earlier study; cited from earlier work
[7] = target: PCP binding site of the NMDA receptor; conditions: earlier study; cited from earlier work
δ-opioid receptor = δ-opioid receptor (Rattus norvegicus, UniProt P33533); assay: δ-opioid receptor binding study; conditions: read-out: inhibition of the radioligand binding, δ receptor
Sequence of δ-opioid receptor (P33533 whole entry): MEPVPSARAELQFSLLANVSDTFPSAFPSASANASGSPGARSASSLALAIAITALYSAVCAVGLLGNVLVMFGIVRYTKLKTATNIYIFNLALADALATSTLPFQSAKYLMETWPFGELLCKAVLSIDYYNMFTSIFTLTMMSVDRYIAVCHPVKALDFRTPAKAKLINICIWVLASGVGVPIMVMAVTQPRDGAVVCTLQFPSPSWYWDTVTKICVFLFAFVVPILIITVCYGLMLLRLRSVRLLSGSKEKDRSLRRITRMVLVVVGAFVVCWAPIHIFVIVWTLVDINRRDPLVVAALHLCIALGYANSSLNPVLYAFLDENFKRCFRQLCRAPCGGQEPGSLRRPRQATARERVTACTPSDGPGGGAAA

Sequence of κ-opioid receptor (P41144 whole entry): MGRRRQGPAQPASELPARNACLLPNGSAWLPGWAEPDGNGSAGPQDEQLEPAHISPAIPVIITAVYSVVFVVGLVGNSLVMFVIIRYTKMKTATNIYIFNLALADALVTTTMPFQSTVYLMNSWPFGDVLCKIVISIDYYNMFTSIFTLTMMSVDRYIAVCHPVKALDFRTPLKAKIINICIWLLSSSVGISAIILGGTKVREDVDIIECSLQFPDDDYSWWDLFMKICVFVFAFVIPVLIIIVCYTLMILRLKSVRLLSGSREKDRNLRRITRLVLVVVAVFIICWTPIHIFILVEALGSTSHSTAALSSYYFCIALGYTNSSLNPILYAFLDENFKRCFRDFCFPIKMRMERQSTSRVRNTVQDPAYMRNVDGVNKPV
T2 sequence (Q13224 27-1484, other chains not shown): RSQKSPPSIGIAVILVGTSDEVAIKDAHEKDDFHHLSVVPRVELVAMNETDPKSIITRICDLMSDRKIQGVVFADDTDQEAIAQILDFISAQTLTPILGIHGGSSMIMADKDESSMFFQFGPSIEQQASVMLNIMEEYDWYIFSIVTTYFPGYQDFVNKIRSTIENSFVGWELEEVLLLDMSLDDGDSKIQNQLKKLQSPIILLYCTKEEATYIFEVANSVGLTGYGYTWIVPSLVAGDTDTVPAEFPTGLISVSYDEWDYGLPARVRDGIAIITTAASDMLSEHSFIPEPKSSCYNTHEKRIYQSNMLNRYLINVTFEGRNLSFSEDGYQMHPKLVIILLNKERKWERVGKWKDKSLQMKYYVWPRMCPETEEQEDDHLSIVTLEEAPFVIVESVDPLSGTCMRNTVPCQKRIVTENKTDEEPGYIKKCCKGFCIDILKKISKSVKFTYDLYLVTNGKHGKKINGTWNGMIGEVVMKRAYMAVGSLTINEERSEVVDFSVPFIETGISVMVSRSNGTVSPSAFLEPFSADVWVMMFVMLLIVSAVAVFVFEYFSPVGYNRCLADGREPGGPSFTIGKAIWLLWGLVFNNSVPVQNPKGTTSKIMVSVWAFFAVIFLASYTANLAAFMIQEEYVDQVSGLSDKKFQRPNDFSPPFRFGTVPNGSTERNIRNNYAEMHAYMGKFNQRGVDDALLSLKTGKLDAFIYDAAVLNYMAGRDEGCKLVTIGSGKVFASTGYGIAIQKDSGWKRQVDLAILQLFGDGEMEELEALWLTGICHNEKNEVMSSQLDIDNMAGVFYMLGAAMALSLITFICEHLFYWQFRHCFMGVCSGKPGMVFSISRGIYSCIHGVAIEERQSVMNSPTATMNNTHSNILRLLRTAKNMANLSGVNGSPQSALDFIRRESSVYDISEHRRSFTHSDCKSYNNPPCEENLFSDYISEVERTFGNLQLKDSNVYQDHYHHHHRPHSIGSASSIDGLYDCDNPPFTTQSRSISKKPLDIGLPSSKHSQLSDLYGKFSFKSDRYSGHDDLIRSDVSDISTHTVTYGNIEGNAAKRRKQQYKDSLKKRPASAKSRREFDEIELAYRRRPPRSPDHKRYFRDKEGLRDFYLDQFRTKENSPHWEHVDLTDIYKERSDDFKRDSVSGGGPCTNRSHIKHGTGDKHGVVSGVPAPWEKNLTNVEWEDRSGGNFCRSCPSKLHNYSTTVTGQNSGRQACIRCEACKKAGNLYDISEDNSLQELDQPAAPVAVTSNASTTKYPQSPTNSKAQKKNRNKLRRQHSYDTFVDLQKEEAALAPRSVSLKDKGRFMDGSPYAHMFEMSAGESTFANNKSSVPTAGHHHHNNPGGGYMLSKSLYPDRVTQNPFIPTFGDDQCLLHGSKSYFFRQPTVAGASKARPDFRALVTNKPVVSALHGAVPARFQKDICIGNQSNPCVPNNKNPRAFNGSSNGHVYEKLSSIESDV
T1 sequence (Q60492 whole entry): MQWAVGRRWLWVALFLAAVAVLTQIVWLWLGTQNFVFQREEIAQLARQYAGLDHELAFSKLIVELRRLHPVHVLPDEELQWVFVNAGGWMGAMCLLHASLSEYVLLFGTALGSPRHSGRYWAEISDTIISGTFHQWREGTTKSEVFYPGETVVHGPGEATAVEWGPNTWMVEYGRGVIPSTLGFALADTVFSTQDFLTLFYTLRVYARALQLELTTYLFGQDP
Sequence of µ-opioid receptor (A0ACM8Q262 1-400): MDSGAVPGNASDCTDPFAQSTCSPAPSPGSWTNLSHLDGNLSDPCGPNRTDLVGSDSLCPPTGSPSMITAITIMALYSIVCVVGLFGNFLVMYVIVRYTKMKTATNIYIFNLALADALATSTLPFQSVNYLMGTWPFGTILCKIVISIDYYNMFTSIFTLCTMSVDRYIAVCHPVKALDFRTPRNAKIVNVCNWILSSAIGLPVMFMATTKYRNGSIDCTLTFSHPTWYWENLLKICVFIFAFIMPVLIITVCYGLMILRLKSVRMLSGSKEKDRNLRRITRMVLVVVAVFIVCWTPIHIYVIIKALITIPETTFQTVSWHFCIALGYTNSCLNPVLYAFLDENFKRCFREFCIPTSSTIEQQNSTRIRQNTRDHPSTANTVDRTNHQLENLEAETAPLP

SMILES	Ki (σ1 receptor [1]; Ki ± SEM σ1) [nM]	Ki [2] [nM]	Ki ([3]; read-out: Ki ± SEM GluN2B) [nM]	LLE (ligand-lipophilicity efficiency) (σ1 receptor [4])	Ki (σ1 receptor [1]; pKi(σ1)) [nM]	Ki (σ2 receptor) [nM]	logD (physchem)	Metabolic Stability (5): amount of the remaining unmetabolized parent compound [5]	selectivity for the σ1 receptor against the ifenprodil binding site (σ1 receptor [4]) [fold]	selectivity for the σ1 receptor over δ-opioid receptors (σ1 receptor [4]; σ1 over δ-opioid receptor) [fold]	σ1:σ2 receptor selectivity (σ1 receptor [4])	inhibition at 1 µM (µ-opioid receptor) [%]	inhibition at 1 µM (κ-opioid receptor) [%]	Ki [3] [nM]	Ki (σ1 receptor [6]) [nM]	Ki [7] [nM]	inhibition at 1 µM (δ-opioid receptor) [%]
NC(CCC[C@H]1CCO[C@@H](c2ccccc2)O1)c1ccccc1 (relative stereo) [24a, 1-Phenyl-4-(cis-2-phenyl-1,3-dioxan-4-yl)butan-1-amine]	> 1000	> 1000	1350	–	–	–	–	–	–	–	–	–	–	–	–	–	–
c1ccc([C@@H]2OCC[C@H](CCCCN3CCCC3)O2)cc1 (relative stereo) [19a, 1-[4-(cis-2-Phenyl-1,3-dioxan-4-yl)butyl]pyrrolidine]	154 ± 8	> 1000	> 1000	6.72	155	> 1000	0.09 ± 0.05	55% and 55 ± 2%	–	–	–	–	–	–	–	–	–
c1ccc(CNCCCC[C@H]2CCO[C@@H](c3ccccc3)O2)cc1 (relative stereo) [17a, N-Benzyl-4-(cis-2-phenyl-1,3-dioxan-4-yl)butan-1-amine]	31 ± 4	> 1000	> 1000	6.19	30.9	213	1.32 ± 0.04	56% and 56 ± 3%	> 30	9	approx. 7 fold	3	0	–	–	–	–
CC[C@]1(c2ccccc2)OCC[C@H](CCCCNCc2ccccc2)O1 (relative stereo) [17b, N-Benzyl-4-(trans-2-ethyl-2-phenyl-1,3-dioxan-4-yl)butan-1-amine]	14 ± 6.1	569 ± 141	–	5.20	14.1	22 ± 1.9	2.65 ± 0.04	50 ± 4%	–	–	–	–	0	39 ± 13	–	–	–
CCC1(c2ccccc2)OCCC(CCCC(c2ccccc2)N2CCCC2)O1 (stereo not drawn) [27b, 1-[4-(trans-2-Ethyl-2-phenyl-1,3-dioxan-4-yl)-1-phenylbutyl]pyrrolidine]	19 ± 0.6	> 1000	–	4.39	19.1	64 ± 15	3.33 ± 0.08	55 ± 5%	–	–	–	–	–	63 ± 20	–	–	–
CNCCCC[C@H]1CCO[C@@H](c2ccccc2)O1 (relative stereo) [16a, N-Methyl-4-(cis-2-phenyl-1,3-dioxan-4-yl)butan-1-amine]	842	> 1000	> 1000	–	–	> 1000	–	–	–	–	–	–	–	–	–	–	–
CCC1(c2ccccc2)OCCC(CCN)O1 (centres unmarked) [2a]	–	–	–	–	–	–	–	–	–	–	–	–	–	–	955	19	–
CC[C@]1(c2ccccc2)OCC[C@H](CCCCN2CCCC2)O1 (relative stereo) [19b, 1-[4-(trans-2-Ethyl-2-phenyl-1,3-dioxan-4-yl)butyl]pyrrolidine]	56 ± 19	> 1000	–	5.96	56.2	57 ± 1.9	1.29 ± 0.05	62 ± 2%	–	–	–	–	–	67 ± 18	–	–	–
CCC1(c2ccccc2)OCCC(CCCC(N)c2ccccc2)O1 (stereo not drawn) [24b, 4-(trans-2-Ethyl-2-phenyl-1,3-dioxan-4-yl)-1-phenylbutan-1-amine]	427	524	136 ± 36	–	–	170	–	–	–	–	–	–	–	–	–	–	–
CC[C@]1(c2ccccc2)OCC[C@H](CCCCN(C)Cc2ccccc2)O1 (relative stereo) [18b, N-Benzyl-4-(trans-2-ethyl-2-phenyl-1,3-dioxan-4-yl)-N-methyl-butan-1-amine]	8.7 ± 3.6	> 1000	–	4.52	8.71	24 ± 6.3	3.54 ± 0.06	36% and 36 ± 1%	–	–	3 fold	0	0	20 ± 3.3	–	–	0
c1ccc(C(CCC[C@H]2CCO[C@@H](c3ccccc3)O2)N2CCCC2)cc1 (relative stereo) [27a, 1-[1-Phenyl-4-(cis-2-phenyl-1,3-dioxan-4-yl)butyl]pyrrolidine]	161 ± 59	> 1000	366	4.59	162	> 1000	2.2 ± 0.07	76% and 76 ± 3%	–	–	–	–	–	–	–	–	–
CCC1(c2ccccc2)OCCC(CCNCc2ccccc2)O1 (centres unmarked) [2b]	–	–	–	–	–	–	–	–	–	–	–	–	–	–	27	–	–
